Assay results published in US20160067246A1, “USE OF PHOSPHODIESTERASE 5A INHIBITORS FOR THE TREATMENT OF MUSCULAR DYSTROPHY” (CEDARS-SINAI MEDICAL CENTER, priority 2013, published 2016).
Values joined by “and” are separate entries in the source; they are usually repeats but may differ in a detail not shown here. Equal values may be shown once.

Key:
Assay type in all cases: in vivo, human
[1] = Tadalafil blood levels by HPLC/tandem MS in BMD patients
Protocol: (§1) The order of tadalafil/placebo was random. The research pharmacist placed tadalafil tablets or lactose powder (placebo) in opaque capsules to blind patients and investigators, both for the test dose and study dose of drug or placebo. Patients were queried about potential tadalafil-specific side-effects both for safety monitoring and to assess whether blinding was maintained. tadalafil blood levels were measured using high performance liquid chromatography/tandem mass spectrometry (NMS Labs Willow Grove, Pa.).

[2] = system: patients with Becker muscular dystrophy (BMD); assay: Blood pressure, heart rate and adverse events in BMD tadalafil trial
Protocol: as §1, with “Subjects were studied in the supine position. Heart rate was measured continuously by electrocardiography and BP by automated oscillometric sphygmomanometry ([…] Monitor 300 Series, […].). […] The order” for “The order”

[3] = system: boys with Duchenne muscular dystrophy (DMD); assay: Exercise-induced hyperemia: brachial artery blood flow by Doppler ultrasound and hemodynamics, rest and post handgrip; set-up: key to BA velocity: mean blood velocity in cm/s; Heart rate: unit not given here
Protocol: Subjects were studied in the supine position. Heart rate was measured continuously by electrocardiography, and blood pressure measured by automated oscillometric sphygomanometry using a child's cuff ([…] Monitor 300 Series). Brachial artery mean blood velocity (MBV) was measured from the exercising arm using pulsed-Doppler ultrasonography (Siemens iE33). Data were acquired continuously with a 9-MHz probe with a 60° angle of insonation, placed on the skin surface distal to the axilla. The ultrasound gate was optimized to ensure complete insonation of the entire vessel cross-section with constant intensity. The Doppler audio signal was converted to a real-time flow velocity signal using a validated Doppler audio converter,^8B and recorded using a PowerLab data acquisition system (ADInstruments, CO). Brachial artery diameter was measured by B-mode imaging in triplicate at rest. […] Brachial artery blood flow was calculated as MBV (cm/s)·πr^2·60, where r is radius of the brachial artery. […] exercise was performed with a dynamometer ([…] Dynamometer modified by Stoelting). To determine maximal voluntary contraction (MVC), each subject was asked to grip the dynamometer as hard as possible. […] Vascular conductance was calculated as forearm blood flow divided by mean arterial pressure. […] Patients then crossed over 2 weeks later for the opposite drug. […] Patients were queried about potential side-effects throughout the study visit. Baseline characteristics of patients and controls were compared using Student's t test. Exercise-induced attenuation of reflex vasoconstriction (functional sympatholysis) was assessed by comparing the LBNP-induced AHbO2+MbO2 (% TLS) at rest versus the LBNP-induced decrease in ΔHbO2+MbO2 during handgrip. Group differences in ΔHbO2+MbO2 were assessed using a Student's t test. The drug treatment effect on LBNP-induced Δ·HbO2+MbO2 (% TLS) at rest versus the LBNP-induced decrease in ΔHbO2+MbO2 during handgrip was compared to baseline for each patient using a Student's t test. The group difference in the % Δ in brachial artery blood flow was assessed using a student's t test. The drug treatment effect on the % Δ in brachial artery blood flow was compared using a student's t test. All analyses were performed in SigmaPlot. Data are expressed as mean±SEM, unless otherwise specified.

[4] = system: boys with Duchenne muscular dystrophy (DMD); assay: Safety data / side-effects of PDE5 inhibitors in boys with DMD
Protocol: Subjects were studied in the supine position. Heart rate was measured continuously by electrocardiography, and blood pressure measured by automated oscillometric sphygomanometry using a child's cuff (Welch Allyn Vital Signs Monitor 300 Series).
Patients received 0.5 mg/kg of oral sildenafil or tadalafil on day 1, followed by 1.0 mg/kg of sildenafil or tadalafil on day 2. Patients then crossed over 2 weeks later for the opposite drug. Experiments were performed 1 hour (sildenafil) or 3 hours (tadalafil) after oral treatment to match the experiment with the peak blood level. Patients were queried about potential side-effects throughout the study visit.

CN1CC(=O)N2[C@H](c3ccc4c(c3)OCO4)c3[nH]c4ccccc4c3C[C@@H]2C1=O [tadalafil]
peak blood concentration of tadalafil in patient P10 (no sympatholysis) ([1]; BMD patient P10, 20 mg oral): 300 ng/mL
peak tadalafil blood concentration, mean ([1]; BMD patients, 20 mg oral): 260 ± 13 ng/mL
peak tadalafil blood concentrations, range ([1]; BMD patients, 20 mg oral): 170 to 310 ng/mL
adverse events or side-effects ([2]; 10 mg test dose and 20 mg study dose): no adverse events or side-effects
diastolic blood pressure post-tadalafil ([2]; post-tadalafil (pre 72±2), P>0.05): 73±3 mm Hg
heart rate post-tadalafil ([2]; post-tadalafil (pre 84±4), P>0.05): 80±4 beats per minute
systolic blood pressure post-tadalafil ([2]; post-tadalafil (pre 116±3), P>0.05): 114±4 mmHg
BA VC (vascular conductance) ([3]; 0.5 mg/kg, Post-exercise): 2.6 ± 0.4 ml/min/mmHg
BA blood flow ([3]; 0.5 mg/kg, Post-exercise): 184 ± 24 mL/min
BA velocity ([3]; 0.5 mg/kg, Post-exercise): 38 ± 5
Heart rate ([3]; 0.5 mg/kg, Post-exercise): 94 ± 3
MAP ([3]; 0.5 mg/kg, Post-exercise): 72 ± 2 mmHg
BA VC (vascular conductance) ([3]; 0.5 mg/kg, Rest): 1.7 ± 0.3 ml/min/mmHg
BA blood flow ([3]; 0.5 mg/kg, Rest): 118 ± 15 mL/min
BA velocity ([3]; 0.5 mg/kg, Rest): 26 ± 4
Heart rate ([3]; 0.5 mg/kg, Rest): 91 ± 3
MAP ([3]; 0.5 mg/kg, Rest): 74 ± 3 mmHg
BA VC (vascular conductance) ([3]; 1.0 mg/kg, Post-exercise): 2.5 ± 0.3 ml/min/mmHg
BA blood flow ([3]; 1.0 mg/kg, Post-exercise): 170 ± 17 mL/min
BA velocity ([3]; 1.0 mg/kg, Post-exercise): 35 ± 4
Heart rate ([3]; 1.0 mg/kg, Post-exercise): 92 ± 4
MAP ([3]; 1.0 mg/kg, Post-exercise): 71 ± 3 mmHg
BA VC (vascular conductance) ([3]; 1.0 mg/kg, Rest): 1.5 ± 0.3 ml/min/mmHg
BA blood flow ([3]; 1.0 mg/kg, Rest): 104 ± 14 mL/min
BA velocity ([3]; 1.0 mg/kg, Rest): 21 ± 3
Heart rate ([3]; 1.0 mg/kg, Rest): 91 ± 3
MAP ([3]; 1.0 mg/kg, Rest): 71 ± 2 mmHg
duration of (penile) erection in an individual patient ([4]; higher dose 1.0 mg/kg): 4 h
duration of (penile) erection in an individual patient ([4]; low dose 0.5 mg/kg, 0.5 mg/kg): > 4 h and 3 h and 6 h
